# Experimental data: US11407767B2, “Heterocyclyl substituted pyrrolopyridines that are inhibitors of the CDK12 kinase” (The University of Nottingham, priority 2017, dated 2022)
# How the values were obtained:
# CDK12/CycK = CDK12/CycK (Homo sapiens, UniProt Q9NYV4); assay: Inhibition of CDK12 (ADP-Glo kinase assay); type: biochemical; details: 60 nM CDK12/CycK, 30 minutes pre-incubation, 1 μM ATP, 0.5 μM RBER-IRStide substrate, 1 h at 25° C., read-out: CDK12/cyclin K IC50
# In short: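 ADP-Glo luminescence read after a 1 h, 25 °C reaction with 1 μM ATP and 0.5 μM RBER-IRStide peptide. Enzyme (60 nM) and compound were first pre-incubated 30 min; buffer 50 mM HEPES pH 7.5, 20 mM MgCl2, 3 mM MnCl2, 1% DMSO. IC50 fitted after blank subtraction.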
# DM1 fibroblasts = assay: Nuclear foci assay; type: cell-based; details: Fibroblast; DM1 fibroblasts treated for 24 hours, 11 point dilution 20 μM-19 nM, in situ hybridisation with cy3 labelled CAG10 probe
# Experimental: DM1 fibroblasts were treated with compounds in an 11 point dilution series from 20 μM-19 nM for 24 hours. Following treatment, fluorescent in situ hybridisation was performed with a cy3 labelled CAG10 probe, to visualize nuclear foci and cells were analysed on a Molecular Devices plate reader with customised MetaExpress software (Ketley, A. et al. (2014). Hum Mol Genet, 23: 1551-1562). Compounds that reduced nuclear foci in a concentration dependent manner, compared to DMSO treated cells were identified.
# Sequence of CDK12/CycK (Q9NYV4 whole entry): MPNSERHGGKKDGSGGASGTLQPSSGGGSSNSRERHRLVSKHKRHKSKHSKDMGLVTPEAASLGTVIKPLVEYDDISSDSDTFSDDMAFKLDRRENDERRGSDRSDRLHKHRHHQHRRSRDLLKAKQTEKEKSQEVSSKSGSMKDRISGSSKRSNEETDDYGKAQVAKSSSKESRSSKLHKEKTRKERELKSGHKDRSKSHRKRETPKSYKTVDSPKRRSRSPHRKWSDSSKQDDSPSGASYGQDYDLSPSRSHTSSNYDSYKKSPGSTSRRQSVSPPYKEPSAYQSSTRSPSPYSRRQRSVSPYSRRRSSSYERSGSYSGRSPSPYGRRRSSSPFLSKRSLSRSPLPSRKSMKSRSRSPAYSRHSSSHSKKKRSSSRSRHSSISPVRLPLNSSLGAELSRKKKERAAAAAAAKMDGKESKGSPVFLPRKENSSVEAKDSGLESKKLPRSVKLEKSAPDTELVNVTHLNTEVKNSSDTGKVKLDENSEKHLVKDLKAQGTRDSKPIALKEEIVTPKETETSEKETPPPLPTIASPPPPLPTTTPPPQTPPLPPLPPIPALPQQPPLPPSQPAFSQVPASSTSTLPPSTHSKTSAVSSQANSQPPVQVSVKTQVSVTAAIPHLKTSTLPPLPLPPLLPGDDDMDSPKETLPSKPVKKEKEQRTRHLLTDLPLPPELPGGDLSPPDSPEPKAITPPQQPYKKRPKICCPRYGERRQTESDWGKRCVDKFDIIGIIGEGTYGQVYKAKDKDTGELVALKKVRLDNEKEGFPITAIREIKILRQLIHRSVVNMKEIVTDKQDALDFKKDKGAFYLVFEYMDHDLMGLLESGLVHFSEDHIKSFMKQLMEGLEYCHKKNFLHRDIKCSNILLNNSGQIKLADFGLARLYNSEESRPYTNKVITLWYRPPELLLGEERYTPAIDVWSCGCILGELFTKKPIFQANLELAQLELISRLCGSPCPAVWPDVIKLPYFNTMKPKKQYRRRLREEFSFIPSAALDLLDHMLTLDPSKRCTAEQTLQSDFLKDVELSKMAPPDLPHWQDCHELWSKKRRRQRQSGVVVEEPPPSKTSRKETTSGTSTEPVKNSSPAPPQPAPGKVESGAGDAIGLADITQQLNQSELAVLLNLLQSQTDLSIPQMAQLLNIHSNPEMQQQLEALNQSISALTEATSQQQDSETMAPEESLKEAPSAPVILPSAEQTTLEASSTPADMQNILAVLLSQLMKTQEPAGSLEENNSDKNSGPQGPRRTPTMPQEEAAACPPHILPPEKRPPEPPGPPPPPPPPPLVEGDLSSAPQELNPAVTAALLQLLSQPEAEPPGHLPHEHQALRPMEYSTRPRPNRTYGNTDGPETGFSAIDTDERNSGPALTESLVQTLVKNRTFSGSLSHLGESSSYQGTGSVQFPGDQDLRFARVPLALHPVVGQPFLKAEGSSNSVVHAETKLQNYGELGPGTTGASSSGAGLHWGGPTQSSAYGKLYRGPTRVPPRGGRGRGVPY
# Sequence of CDK12/CycK (O75909 whole entry partner): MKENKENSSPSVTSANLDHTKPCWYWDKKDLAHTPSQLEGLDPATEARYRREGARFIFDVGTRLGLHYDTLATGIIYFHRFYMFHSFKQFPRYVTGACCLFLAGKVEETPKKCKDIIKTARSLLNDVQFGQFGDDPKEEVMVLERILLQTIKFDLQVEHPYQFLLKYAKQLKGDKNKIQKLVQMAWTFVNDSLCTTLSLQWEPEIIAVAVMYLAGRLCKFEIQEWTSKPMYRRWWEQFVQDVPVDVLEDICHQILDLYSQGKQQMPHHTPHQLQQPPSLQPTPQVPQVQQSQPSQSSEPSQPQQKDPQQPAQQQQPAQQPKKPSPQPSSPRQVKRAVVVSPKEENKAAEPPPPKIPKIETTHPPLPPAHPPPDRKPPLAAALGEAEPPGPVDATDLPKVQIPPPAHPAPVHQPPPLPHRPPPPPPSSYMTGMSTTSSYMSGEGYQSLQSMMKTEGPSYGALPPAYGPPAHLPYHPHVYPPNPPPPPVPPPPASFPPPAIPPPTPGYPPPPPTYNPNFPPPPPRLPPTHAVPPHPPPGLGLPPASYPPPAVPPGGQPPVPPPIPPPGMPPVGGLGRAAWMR
SMILES,IC50 (CDK12/CycK) [nM],IC50 (DM1 fibroblasts) [nM]
"C=CC(=O)N1CCC[C@H]1C(=O)NCCc1cc2c(-c3cnn4ncccc34)ccnc2[nH]1 [Example 32, (S)-1-Acryloyl-N-(2-(4-(pyrazolo[1,5-b]pyridazin-3-yl)-1H-pyrrolo[2,3-b]pyridin-2-yl)ethyl)pyrrolidine-2-carboxamide]",< 100,< 1000
"CC(C)=CC(=O)N1CCC[C@H]1C(=O)NCCc1cc2c(-c3cnn4ncccc34)ccnc2[nH]1 [Example 42, (S)-1-(3-Methylbut-2-enoyl)-N-(2-(4-(pyrazolo[1,5-b]pyridazin-3-yl)-1H-pyrrolo[2,3-b]pyridin-2-yl)ethyl)pyrrolidine-2-carboxamide]",100 to 1000,1000 to 10000
"C=C(C)C(=O)N1CCC[C@H]1C(=O)NCCc1cc2c(-c3cnn4ncccc34)ccnc2[nH]1 [Example 43, (S)-1-Methacryloyl-N-(2-(4-(pyrazolo[1,5-b]pyridazin-3-yl)-1H-pyrrolo[2,3-b]pyridin-2-yl)ethyl)pyrrolidine-2-carboxamide]",1000 to 30000,10000 to 100000
"C/C=C/C(=O)N1CCC[C@H]1C(=O)NCCc1cc2c(-c3cnn4ncccc34)ccnc2[nH]1 [Example 44, (S,E)-1-(But-2-enoyl)-N-(2-(4-(pyrazolo[1,5-b]pyridazin-3-yl)-1H-pyrrolo[2,3-b]pyridin-2-yl)ethyl)pyrrolidine-2-carboxamide]",1000 to 30000,1000 to 10000
"C=CC(=O)N1CCC[C@H]1C(=O)N1CCC(c2cc3c(-c4cnn5ncccc45)ccnc3[nH]2)CC1 [Example 194, (S)-1-(2-(4-(4-(Pyrazolo[1,5-b]pyridazin-3-yl)-1H-pyrrolo[2,3-b]pyridin-2-yl)piperidine-1-carbonyl)pyrrolidin-1-yl)prop-2-en-1-one]",< 100,–
"C=CC(=O)N1CCC[C@@H]1C(=O)N1CCC(c2cc3c(-c4cnn5ncccc45)ccnc3[nH]2)CC1 [Example 195, (R)-1-(2-(4-(4-(pPyrazolo[1,5-b]pyridazin-3-yl)-1H-pyrrolo[2,3-b]pyridin-2-yl)piperidine-1-carbonyl)pyrrolidin-1-yl)prop-2-en-1-one]",< 100,–
"C=CC(=O)N1CCC2(CCCN(Cc3cc4c(-c5cnn6ncccc56)ccnc4[nH]3)C2)C1 (centres unmarked) [Example 198, 1-(7-((4-(Pyrazolo[1,5-b]pyridazin-3-yl)-1H-pyrrolo[2,3-b]pyridin-2-yl)methyl)-2,7-diazaspiro[4.5]decan-2-yl)prop-2-en-1-one]",1000 to 30000,–
"N#CCC(=O)N1CCC[C@H]1C(=O)NCCc1cc2c(-c3cnn4ncccc34)ccnc2[nH]1 [Example 201, (S)-1-(2-Cyanoacetyl)-N-(2-(4-(pyrazolo[1,5-b]pyridazin-3-yl)-1H-pyrrolo[2,3-b]pyridin-2-yl)ethyl)pyrrolidine-2-carboxamide]",100 to 1000,–
"CC(C)=C(C#N)C(=O)N1CCC[C@H]1C(=O)NCCc1cc2c(-c3cnn4ncccc34)ccnc2[nH]1 [Example 202, (S)-1-(2-Cyano-3-methylbut-2-enoyl)-N-(2-(4-(pyrazolo[1,5-b]pyridazin-3-yl)-1H-pyrrolo[2,3-b]pyridin-2-yl)ethyl)pyrrolidine-2-carboxamide]",1000 to 30000,–
"C=CC(=O)N1CCC[C@H]1C(=O)N[C@H]1C[C@@H](c2cc3c(-c4cnn5ncccc45)ccnc3[nH]2)C1 [Example 205, (S)-1-Acryloyl-N-((1 S,3R)-3-(4-(pyrazolo[1,5-b]pyridazin-3-yl)-1H-pyrrolo[2,3-b]pyridin-2-yl)cyclobutyl)pyrrolidine-2-carboxamide]",< 100,–
"C=CC(=O)N1CCC[C@H](C(=O)N2CCC(c3cc4c(-c5cnn6ncccc56)ccnc4[nH]3)C2)C1 (stereo partly drawn) [Example 206, 1-((3S)-3-(3-(4-(Pyrazolo[1,5-b]pyridazin-3-yl)-1H-pyrrolo[2,3-b]pyridin-2-yl)pyrrolidine-1-carbonyl)piperidin-1-yl)prop-2-en-1-one]",< 100,–
"C=CC(=O)Nc1cccc(C(=O)NCCCc2cc3c(-c4cnn5ncccc45)ccnc3[nH]2)c1 [Example 215, 3-Acrylamido-N-(3-(4-(pyrazolo[1,5-b]pyridazin-3-yl)-1H-pyrrolo[2,3-b]pyridin-2-yl)propyl)benzamide]",< 100,–
"C=CC(=O)N1CCC[C@H]1C(=O)NCCCc1cc2c(-c3cnn4ncccc34)ccnc2[nH]1 [Example 216, (S)-1-Acryloyl-N-(3-(4-(pyrazolo[1,5-b]pyridazin-3-yl)-1H-pyrrolo[2,3-b]pyridin-2-yl)propyl)pyrrolidine-2-carboxamide]",< 100,–

# More lines, main results first:
IC50 (CDK12/CycK) [nM],SMILES,IC50 (DM1 fibroblasts) [nM]
< 100,"C=CC(=O)N1CCC1C(=O)NCCc1cc2c(-c3cnn4ncccc34)ccnc2[nH]1 (single isomer, unassigned) [Example 39]",< 1000
100 to 1000,"NC(=O)c1cc2c(-c3cnn4ncccc34)ccnc2[nH]1 [Example 6, 4-(Pyrazolo[1,5-b]pyridazin-3-yl)-1H-pyrrolo[2,3-b]pyridine-2-carboxamide]",1000 to 10000
100 to 1000,"CNC(=O)c1cc2c(-c3cnn4ncccc34)ccnc2[nH]1 [Example 7, N-Methyl-4-(pyrazolo[1,5-b]pyridazin-3-yl)-1H-pyrrolo[2,3-b]pyridine-2-carboxamide]",1000 to 10000
1000 to 30000,"c1ccc(Cc2cc3c(-c4cnn5ncccc45)ccnc3[nH]2)cc1 [Example 10, 3-(2-Benzyl-1H-pyrrolo[2,3-b]pyridin-4-yl)pyrazolo[1,5-b]pyridazine]",10000 to 100000
100 to 1000,"OCc1cc2c(-c3cnn4ncccc34)ccnc2[nH]1 [Example 11, (4-(Pyrazolo[1,5-b]pyridazin-3-yl)-1H-pyrrolo[2,3-b]pyridin-2-yl)methanol]",1000 to 10000
100 to 1000,"c1cc(-c2ccc3cn[nH]c3c2)c2cc[nH]c2n1 [Example 20, 6-(1H-Pyrrolo[2,3-b]pyridin-4-yl)-1H-indazole]",10000 to 100000
1000 to 30000,"c1cc(-c2ccc3[nH]nnc3c2)c2cc[nH]c2n1 [Example 21, 5-(1H-Pyrrolo[2,3-b]pyridin-4-yl)-1H-benzo[d][1,2,3]triazole]",10000 to 100000
1000 to 30000,"COc1ccc2c(-c3ccnc4[nH]ccc34)cnn2n1 [Example 22, 6-Methoxy-3-(1H-pyrrolo[2,3-b]pyridin-4-yl)pyrazolo[1,5-b]pyridazine]",10000 to 100000
100 to 1000,"Cc1cc2c(-c3cnn4ncccc34)ccnc2[nH]1 [Example 27, 3-(2-Methyl-1H-pyrrolo[2,3-b]pyridin-4-yl)pyrazolo[1,5-b]pyridazine]",< 1000
100 to 1000,"c1cnn2ncc(-c3ccnc4[nH]ccc34)c2c1 [Example 28, 3-(1H-Pyrrolo[2,3-b]pyridin-4-yl)pyrazolo[1,5-b]pyridazine]",< 1000
< 100,"C=CC(=O)N1CCC[C@@H]1C(=O)NCCc1cc2c(-c3cnn4ncccc34)ccnc2[nH]1 [Example 33, (R)-1-Acryloyl-N-(2-(4-(pyrazolo[1,5-b]pyridazin-3-yl)-1H-pyrrolo[2,3-b]pyridin-2-yl)ethyl)pyrrolidine-2-carboxamide]",< 1000
< 100,"C=CC(=O)N1CCC[C@@H](C(=O)NCCc2cc3c(-c4cnn5ncccc45)ccnc3[nH]2)C1 [Example 34, (R)-1-Acryloyl-N-(2-(4-(pyrazolo[1,5-b]pyridazin-3-yl)-1H-pyrrolo[2,3-b]pyridin-2-yl)ethyl)piperidine-3-carboxamide]",1000 to 10000
< 100,"C=CC(=O)N1CCC[C@H](C(=O)NCCc2cc3c(-c4cnn5ncccc45)ccnc3[nH]2)C1 [Example 35, (S)-1-acryloyl-N-(2-(4-(pyrazolo[1,5-b]pyridazin-3-yl)-1H-pyrrolo[2,3-b]pyridin-2-yl)ethyl)piperidine-3-carboxamide]",< 1000
< 100,"C=CC(=O)Nc1cccc(C(=O)NCCc2cc3c(-c4cnn5ncccc45)ccnc3[nH]2)c1 [Example 36, 3-Acrylamido-N-(2-(4-(pyrazolo[1,5-b]pyridazin-3-yl)-1H-pyrrolo[2,3-b]pyridin-2-yl)ethyl)benzamide]",< 1000
< 100,"C=CC(=O)N1CC(C(=O)NCCc2cc3c(-c4cnn5ncccc45)ccnc3[nH]2)C1 [Example 37, 1-Acryloyl-N-(2-(4-(pyrazolo[1,5-b]pyridazin-3-yl)-1H-pyrrolo[2,3-b]pyridin-2-yl)ethyl)azetidine-3-carboxamide]",1000 to 10000
1000 to 30000,"C=CC(=O)NCC1CCN(Cc2cc3c(-c4cnn5ncccc45)ccnc3[nH]2)C1 (centres unmarked) [Example 199, N-((1-((4-(Pyrazolo[1,5-b]pyridazin-3-yl)-1H-pyrrolo[2,3-b]pyridin-2-yl)methyl)pyrrolidin-3-yl)methyl)acrylamide]",–
< 100,"C=CC(=O)N1CCN(C(=O)/C=C/c2cc3c(-c4cnn5ncccc45)ccnc3[nH]2)CC1 [Example 209, (E)-1-(4-Acryloylpiperazin-1-yl)-3-(4-(pyrazolo[1,5-b]pyridazin-3-yl)-1H-pyrrolo[2,3-b]pyridin-2-yl)prop-2-en-1-one]",–
< 100,"C=CC(=O)NC1(C(=O)NCCCc2cc3c(-c4cnn5ncccc45)ccnc3[nH]2)CC1 [Example 214, 1-Acrylamido-N-(3-(4-(pyrazolo[1,5-b]pyridazin-3-yl)-1H-pyrrolo[2,3-b]pyridin-2-yl)propyl)cyclopropane-1-carboxamide]",–
